According to PubChem BioAssay (NCI):
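Interpolation was linear, between the two tested concentrations surrounding the appropriate level; five concentrations were tested over 48 hours in 96-well plates. At the GI50, growth is halved. TGI denotes the concentration required for complete inhibition of growth.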

What was measured:
Assay in all cases: NCI-60 cell line screen, 48 h
786-0 renal = test system: 786-0 renal
A498 renal = test system: A498 renal
A549 NSCLC = test system: A549 NSCLC
ACHN renal = test system: ACHN renal
BT-549 breast = test system: BT-549 breast
CAKI-1 renal = test system: CAKI-1 renal
CCRF-CEM leukemia = test system: CCRF-CEM leukemia
COLO 205 colon = test system: COLO 205 colon
DU-145 prostate = test system: DU-145 prostate
EKVX NSCLC = test system: EKVX NSCLC
HCC-2998 colon = test system: HCC-2998 colon
HCT-116 colon = test system: HCT-116 colon
HCT-15 colon = test system: HCT-15 colon
HL-60(TB) leukemia = test system: HL-60(TB) leukemia
HOP-62 NSCLC = test system: HOP-62 NSCLC
HOP-92 NSCLC = test system: HOP-92 NSCLC
HS 578T breast = test system: HS 578T breast
HT29 colon = test system: HT29 colon
IGROV1 ovarian = test system: IGROV1 ovarian
K-562 leukemia = test system: K-562 leukemia
KM12 colon = test system: KM12 colon
LOX IMVI melanoma = test system: LOX IMVI melanoma
M14 melanoma = test system: M14 melanoma
MALME-3M melanoma = test system: MALME-3M melanoma
MCF7 breast = test system: MCF7 breast
MDA-MB-231 breast = test system: MDA-MB-231 breast
MDA-MB-435 = test system: MDA-MB-435
MOLT-4 leukemia = test system: MOLT-4 leukemia
NCI-H226 lung = test system: NCI-H226 lung
NCI-H23 lung = test system: NCI-H23 lung
NCI-H460 lung = test system: NCI-H460 lung
NCI-H522 lung = test system: NCI-H522 lung
NCI/ADR-RES ovarian = test system: NCI/ADR-RES ovarian
OVCAR-3 ovarian = test system: OVCAR-3 ovarian
OVCAR-4 ovarian = test system: OVCAR-4 ovarian
OVCAR-5 ovarian = test system: OVCAR-5 ovarian
OVCAR-8 ovarian = test system: OVCAR-8 ovarian
PC-3 prostate = test system: PC-3 prostate
RPMI-8226 leukemia = test system: RPMI-8226 leukemia
RXF 393 renal = test system: RXF 393 renal
SF-268 CNS = test system: SF-268 CNS
SF-295 CNS = test system: SF-295 CNS
SF-539 CNS = test system: SF-539 CNS
SK-MEL-2 melanoma = test system: SK-MEL-2 melanoma
SK-MEL-28 melanoma = test system: SK-MEL-28 melanoma
SK-MEL-5 melanoma = test system: SK-MEL-5 melanoma
SK-OV-3 ovarian = test system: SK-OV-3 ovarian
SN12C renal = test system: SN12C renal
SNB-19 CNS = test system: SNB-19 CNS
SNB-75 CNS = test system: SNB-75 CNS
SR leukemia = test system: SR leukemia
SW-620 colon = test system: SW-620 colon
T-47D breast = test system: T-47D breast
TK-10 renal = test system: TK-10 renal
U251 CNS = test system: U251 CNS
UACC-257 melanoma = test system: UACC-257 melanoma
UACC-62 melanoma = test system: UACC-62 melanoma
UO-31 renal = test system: UO-31 renal

CCCn1cnc2c(c1=N)C(c1ccc(F)cc1)c1sc3c(C)cccc3c1O2 (stereo unspecified)
GI50 (786-0 renal): 1.08 µM
TGI (786-0 renal): 14.5 µM
GI50 (A498 renal): 0.584 µM
TGI (A498 renal): 3.95 µM
GI50 (A549 NSCLC): 2.15 µM
TGI (A549 NSCLC): > 48.8 µM
GI50 (ACHN renal): 1.45 µM
TGI (ACHN renal): 16.1 µM
GI50 (BT-549 breast): 5.84 µM
TGI (BT-549 breast): 22.8 µM
GI50 (CAKI-1 renal): 0.546 µM
TGI (CAKI-1 renal): > 39.5 µM
GI50 (CCRF-CEM leukemia): 1.03 µM
TGI (CCRF-CEM leukemia): > 43.8 µM
GI50 (COLO 205 colon): 2.6 µM
TGI (COLO 205 colon): 8.22 µM
GI50 (DU-145 prostate): 3.34 µM
TGI (DU-145 prostate): 29.5 µM
GI50 (EKVX NSCLC): 3.7 µM
TGI (EKVX NSCLC): 27.6 µM
GI50 (HCC-2998 colon): 2.01 µM
TGI (HCC-2998 colon): 6.08 µM
GI50 (HCT-116 colon): 0.467 µM
TGI (HCT-116 colon): 11.8 µM
GI50 (HCT-15 colon): 1.05 µM
TGI (HCT-15 colon): 12.7 µM
GI50 (HL-60(TB) leukemia): 1.48 µM
TGI (HL-60(TB) leukemia): 7.87 µM
GI50 (HOP-62 NSCLC): 2.08 µM
TGI (HOP-62 NSCLC): 31.1 µM
GI50 (HOP-92 NSCLC): 0.458 µM
TGI (HOP-92 NSCLC): 7.5 µM
GI50 (HS 578T breast): 0.961 µM
TGI (HS 578T breast): 14.3 µM
GI50 (HT29 colon): 3.16 µM
TGI (HT29 colon): 12.8 µM
GI50 (IGROV1 ovarian): 1.23 µM
TGI (IGROV1 ovarian): 13.1 µM
GI50 (K-562 leukemia): 0.358 µM
TGI (K-562 leukemia): 22.6 µM
GI50 (KM12 colon): 1.63 µM
TGI (KM12 colon): > 36.3 µM
GI50 (LOX IMVI melanoma): 0.962 µM
TGI (LOX IMVI melanoma): 13.2 µM
GI50 (M14 melanoma): 0.637 µM
TGI (M14 melanoma): 11.3 µM
GI50 (MALME-3M melanoma): 2.66 µM
TGI (MALME-3M melanoma): 24.2 µM
GI50 (MCF7 breast): 0.351 µM
TGI (MCF7 breast): 13.8 µM
GI50 (MDA-MB-231 breast): 3.09 µM
TGI (MDA-MB-231 breast): 15.7 µM
GI50 (MDA-MB-435): 0.328 µM
TGI (MDA-MB-435): 1.27 µM
GI50 (MOLT-4 leukemia): 3.48 µM
TGI (MOLT-4 leukemia): > 54.2 µM
GI50 (NCI-H226 lung): 2.87 µM
TGI (NCI-H226 lung): 15.1 µM
GI50 (NCI-H23 lung): 1.62 µM
TGI (NCI-H23 lung): 10.9 µM
GI50 (NCI-H460 lung): 1.05 µM
TGI (NCI-H460 lung): 11.5 µM
GI50 (NCI-H522 lung): 0.4 µM
TGI (NCI-H522 lung): 12.1 µM
GI50 (NCI/ADR-RES ovarian): 0.425 µM
TGI (NCI/ADR-RES ovarian): 6.99 µM
GI50 (OVCAR-3 ovarian): 0.815 µM
TGI (OVCAR-3 ovarian): 10.6 µM
GI50 (OVCAR-4 ovarian): 2.79 µM
TGI (OVCAR-4 ovarian): > 42.5 µM
GI50 (OVCAR-5 ovarian): 3.66 µM
TGI (OVCAR-5 ovarian): 18.4 µM
GI50 (OVCAR-8 ovarian): 3.79 µM
TGI (OVCAR-8 ovarian): 31 µM
GI50 (PC-3 prostate): 0.638 µM
TGI (PC-3 prostate): 15.2 µM
GI50 (RPMI-8226 leukemia): 0.961 µM
TGI (RPMI-8226 leukemia): 7.91 µM
GI50 (RXF 393 renal): 0.227 µM
TGI (RXF 393 renal): 0.741 µM
GI50 (SF-268 CNS): 2.71 µM
TGI (SF-268 CNS): 21.9 µM
GI50 (SF-295 CNS): 0.581 µM
TGI (SF-295 CNS): 11 µM
GI50 (SF-539 CNS): 1.16 µM
TGI (SF-539 CNS): 5.07 µM
GI50 (SK-MEL-2 melanoma): 5.41 µM
TGI (SK-MEL-2 melanoma): 30.1 µM
GI50 (SK-MEL-28 melanoma): 5.79 µM
TGI (SK-MEL-28 melanoma): 22.7 µM
GI50 (SK-MEL-5 melanoma): 1.25 µM
TGI (SK-MEL-5 melanoma): 11.9 µM
GI50 (SK-OV-3 ovarian): 2.23 µM
TGI (SK-OV-3 ovarian): 38.8 µM
GI50 (SN12C renal): 2.94 µM
TGI (SN12C renal): 14.9 µM
GI50 (SNB-19 CNS): 2.4 µM
TGI (SNB-19 CNS): 18.4 µM
GI50 (SNB-75 CNS): 0.321 µM
TGI (SNB-75 CNS): 13.8 µM
GI50 (SR leukemia): 0.648 µM
TGI (SR leukemia): 15.6 µM
GI50 (SW-620 colon): 1.32 µM
TGI (SW-620 colon): 18.8 µM
GI50 (T-47D breast): 1.97 µM
TGI (T-47D breast): 41.9 µM
GI50 (TK-10 renal): 16.1 µM
TGI (TK-10 renal): 61.5 µM
GI50 (U251 CNS): 2.07 µM
TGI (U251 CNS): 18.1 µM
GI50 (UACC-257 melanoma): 15.6 µM
TGI (UACC-257 melanoma): 39.5 µM
GI50 (UACC-62 melanoma): 0.443 µM
TGI (UACC-62 melanoma): 13.8 µM
GI50 (UO-31 renal): 0.662 µM
TGI (UO-31 renal): 15.1 µM
